Reference: patent publication US7332501B2, “Indol-3-yl-carbonyl-spiro-piperidine derivatives as V1a receptor antagonists” (Hoffmann-La Roche Inc., priority 2005, dated 2008)

Target: T1, human V1a receptor (Homo sapiens, UniProt P37288)
T1 construct: expressed in transfected cells; host or cells: HEK293 cells, transiently transfected; cell membranes
Test: human V1a receptor binding (3H-Vasopressin SPA, HEK293 membranes)
Conditions: displacement of 4 nM 3H-Vasopressin, membranes of HEK293 cells transiently transfected with human V1a receptor; Ki from IC50 by Cheng-Prussoff
Outline: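 Transiently transfected HEK293 membranes on yttrium silicate SPA beads in Tris binding buffer (120 mM NaCl, 5 mM KCl, 2 mM CaCl2, 10 mM MgCl2). 3H-vasopressin added as 4 nM working solution; excess cold vasopressin set non-specific binding. 1 h at room temperature, then counting; Ki from fitted IC50 via Cheng-Prusoff.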

T1 sequence (P37288 whole entry): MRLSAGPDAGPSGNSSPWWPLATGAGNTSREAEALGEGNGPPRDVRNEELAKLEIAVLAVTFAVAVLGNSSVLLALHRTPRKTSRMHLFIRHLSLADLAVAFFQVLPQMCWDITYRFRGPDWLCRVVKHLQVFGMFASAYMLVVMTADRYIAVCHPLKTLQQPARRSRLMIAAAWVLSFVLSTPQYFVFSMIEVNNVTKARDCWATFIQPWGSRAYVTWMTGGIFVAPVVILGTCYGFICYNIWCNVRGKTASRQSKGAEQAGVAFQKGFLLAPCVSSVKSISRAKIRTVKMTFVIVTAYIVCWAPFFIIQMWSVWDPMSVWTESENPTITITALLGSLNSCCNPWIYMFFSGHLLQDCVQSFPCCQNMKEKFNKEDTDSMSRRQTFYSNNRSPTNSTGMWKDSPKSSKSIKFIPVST

- Ki: 3 nM
SMILES: O=C(Cn1cc(C(=O)N2CCC3(CC2)OC(=O)c2ccccc23)c2ccc(Cl)cc21)c1cc(F)ccc1F [Example 136, 1′-({6-Chloro-1-[2-(2,5-difluorophenyl)-2-oxoethyl]-1H-indol-3-yl]carbonyl)-3H-spiro[2-benzofuran-1,4′-piperidin]-3-one]
